Test results from publication PMC4756635 (Bioorganic & medicinal chemistry letters, 2016).
Entries after “also recorded” stand apart in the source; their conditions may differ.

Columns and labels:
[1] = Pharmacokinetics and oral bioavailability in C3H mice, plasma levels by LC-MS; type: in vivo; settings: for bioavailability: po, 10 mg/kg; for Plasma drug concentrations at higher PO dose: mice, PO 100 mg/kg in suspension, data not shown
[2] = target: HIV-1 Nef (Human immunodeficiency virus type 1 group M subtype B, UniProt P03406); assay: SPR direct binding to immobilized recombinant Nef
[3] = test system: HIV-1NL4-3; assay: Nef-dependent HIV-1 replication in U87MG/CD4/CXCR4 cells, p24 Gag ELISA; type: cell-based; settings: 3 μM, 4 days
[4] = C3H, mouse, plasma, iv, 2 mg/kg

Row | SMILES | half-life [1, 4] [h] | Reduction of binding affinity for Nef relative to B9 parent compound [2] [fold] | AUC(0-inf) [1, 4] [µg·h/mL] | Cmax [1, 4] [µg/mL] | Vd [1, 4] [L/kg] | clearance [1, 4] [L/h/kg] | bioavailability ([1]; C3H, mouse, plasma) [%] | Plasma drug concentrations at higher PO dose [1] | Effect on Nef-dependent enhancement of HIV-1 replication [3] | Nef binding by SPR (in words) [2] | AUC(0-t) [1, 4] [µg·h/mL]
1 | NC(=S)n1nc(-c2ccc([N+](=O)[O-])cc2)c(/N=N/c2cccc(Cl)c2)c1O [Compound 1] | > 2 | – | – | – | – | – | – | – | – | – | –
2 | NC(=S)n1nc(-c2ccc([N+](=O)[O-])cc2)c(CCc2cccc(Cl)c2)c1O [Compound 2] | 2.7 | 2 | 2.47 | 11.2 | 0.91 | 0.929 | 53 to 85 | proportionally higher plasma drug concentrations | suppressed Nef-dependent enhancement of HIV-1 replication to the same extent as B9 | – | –
3 | O=[N+]([O-])c1ccc(-c2n[nH]c(O)c2CCc2cccc(Cl)c2)cc1 [Compound 3] | – | – | – | – | – | – | – | – | no activity | dramatic loss of Nef binding; also recorded: fail to bind to Nef | –
4 | NC(=S)n1nc(-c2ccc([N+](=O)[O-])cc2)c(Cc2cccc(Cl)c2)c1O [Compound 4] | – | – | 3.89 | 3.88 | 0.95 | 0.671 | 57 to 100 | proportionally higher plasma drug concentrations | suppressed Nef-dependent enhancement of HIV-1 replication to the same extent as B9 | – | 3.77
5 | O=[N+]([O-])c1ccc(-c2n[nH]c(O)c2Cc2cccc(Cl)c2)cc1 [Compound 5] | – | – | – | – | – | – | – | – | no activity | dramatic loss of Nef binding; also recorded: fail to bind to Nef | –
